Experimental data as given in patent US11319289B2, “5-hydroxy pyridine-based compound for use as P2X1 and P2X3 receptor antagonist and pharmaceutical composition comprising same” (GWANGJU INSTITUTE OF SCIENCE AND TECHNOLOGY, priority 2017, dated 2022).

Experiments:
[1] = Plasma protein binding by rapid equilibrium dialysis, rat; type: in vitro ADME; details: plasma (50% in PBS), pH 7.4, read-out: Plasma protein binding rate, Rat (converted)
Description: Plasma protein binding was measured by rapid equilibrium dialysis (RED). A DMSO stock solution of the compounds was prepared at a concentration of 10 mM and diluted to a concentration of […] with 50% plasma in phosphate buffered saline (PBS, pH 7.4). Plasma samples (100 μL) and PBS (300 μL) were added to the sample chamber and the buffer chamber, respectively, after which the RED device was turn on and the samples were incubated in a shaking incubator at 37° C. for 4 hours. After dialysis, 50 μl aliquots were collected from each side of the chamber. 50 μl of blank plasma was added to the buffer sample, and 50 μl of PBS was also added to the plasma sample. 200 μL of acetonitrile containing an internal standard was added to each sample. The samples were centrifuged at 3200 g for 20 minutes at 4° C., and the supernatants were obtained and analyzed by an LC-MS/MS system. The plasma protein binding rate was calculated as follows: Free form (%)=(Buffer chamber/Plasma chamber)×100 Bound form (%)=100−Free form (%).

rP2X2/3 receptors = molecular target: T1, rP2X2/3 receptors (Rattus norvegicus, UniProt P49653+P49654); assay: Antagonistic effect for heterologous rP2X2/3 receptors; type: cell-based; details: FIG. 2
T1 sequence (P49653 1-472): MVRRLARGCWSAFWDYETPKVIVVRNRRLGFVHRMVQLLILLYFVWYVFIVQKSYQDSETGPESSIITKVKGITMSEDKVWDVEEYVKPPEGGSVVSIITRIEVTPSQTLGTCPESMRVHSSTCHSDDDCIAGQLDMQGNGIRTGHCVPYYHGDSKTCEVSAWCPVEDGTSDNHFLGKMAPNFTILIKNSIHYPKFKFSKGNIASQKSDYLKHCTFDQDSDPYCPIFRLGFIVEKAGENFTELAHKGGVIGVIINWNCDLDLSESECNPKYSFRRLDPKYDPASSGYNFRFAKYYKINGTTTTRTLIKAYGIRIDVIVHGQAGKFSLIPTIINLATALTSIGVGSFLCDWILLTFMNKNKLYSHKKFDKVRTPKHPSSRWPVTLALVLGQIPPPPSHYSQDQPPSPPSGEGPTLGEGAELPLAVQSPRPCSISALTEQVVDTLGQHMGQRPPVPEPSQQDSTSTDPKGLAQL
T1 sequence (P49654 1-397): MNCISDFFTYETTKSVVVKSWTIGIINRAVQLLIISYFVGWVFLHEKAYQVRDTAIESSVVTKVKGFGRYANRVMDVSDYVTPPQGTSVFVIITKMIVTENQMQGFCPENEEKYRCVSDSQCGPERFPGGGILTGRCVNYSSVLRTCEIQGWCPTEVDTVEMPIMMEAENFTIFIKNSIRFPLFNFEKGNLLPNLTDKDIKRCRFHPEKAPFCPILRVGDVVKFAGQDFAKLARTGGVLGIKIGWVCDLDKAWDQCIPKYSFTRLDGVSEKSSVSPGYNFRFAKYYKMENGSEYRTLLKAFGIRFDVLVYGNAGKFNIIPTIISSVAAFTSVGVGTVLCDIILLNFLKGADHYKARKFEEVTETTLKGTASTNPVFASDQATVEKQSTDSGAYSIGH
Description: FIGS. 2a to 2c show the antagonistic activity of Compound 29 of the present invention for P2X3 and P2X2/3 receptors (2a: hP2X3R, 2b: […]).

hERG K+ channel = molecular target: T2, hERG K+ channel (Homo sapiens, UniProt Q12809); assay: hERG K+ channel patch-clamp assay in CHO-K1 Tet-On hERG cells; type: cell-based
T2 construct: host or cells: CHO-K1 Tet-On hERG cells
Description: 2-2. hERF Channel Test Method
hERG K^+ Channel Conventional Patch-Clamp Assay
CHO-K1 cells expressing hERG channels via an inducible Tet-On gene expression system (CHO-K1 Tet-On hERG cells) were purchased from IonGate Biosciences GmbH (Frankfurt, Germany). CHO-K1 Tet-On hERG cells were incubated in Dulbecco's modified Eagle's medium (DMEM) containing 10% (v/v) fetal bovine serum, penicillin (100 U/mL), streptomycin (100 μg/mL), fungizone (2.5 μg/mL), as well as selection antibiotics, geneticin G418 (200 μg/mL), hygromycin (200 μg/mL) and puromycin (2 μg/mL) in a humidified condition of 5% CO2 at 37° C. The cells were passaged by treatment with trypsin-EDTA every three days. […]
NPC-16 Patchliner (Nanion Technologies, Munchen, Germany), an automated patch-clamp apparatus, was used for the whole-cell recordings. Whole-cell currents were recorded using an intracellular solution (unit in mM) containing 50 KCl, 60 KF, 10 NaCl, 2 MgCl2, 20 EGTA and 10 HEPES (pH 7.2) and an extracellular solution (unit in mM) containing 140 NaCl, 4 KCl, 2 CaCl2, 1MgCl2, 5 glucose and 10 HEPES (pH 7.4). […]
hERG channel currents were recorded using a parallel EPC-10 patch clamp amplifier (HEKA Elektronik, Lambrecht/Pfalz, Germany), and low-pass filtering (10 kHz) was performed with a 4-pole Bessel filter. […]

T2 sequence (Q12809 whole entry): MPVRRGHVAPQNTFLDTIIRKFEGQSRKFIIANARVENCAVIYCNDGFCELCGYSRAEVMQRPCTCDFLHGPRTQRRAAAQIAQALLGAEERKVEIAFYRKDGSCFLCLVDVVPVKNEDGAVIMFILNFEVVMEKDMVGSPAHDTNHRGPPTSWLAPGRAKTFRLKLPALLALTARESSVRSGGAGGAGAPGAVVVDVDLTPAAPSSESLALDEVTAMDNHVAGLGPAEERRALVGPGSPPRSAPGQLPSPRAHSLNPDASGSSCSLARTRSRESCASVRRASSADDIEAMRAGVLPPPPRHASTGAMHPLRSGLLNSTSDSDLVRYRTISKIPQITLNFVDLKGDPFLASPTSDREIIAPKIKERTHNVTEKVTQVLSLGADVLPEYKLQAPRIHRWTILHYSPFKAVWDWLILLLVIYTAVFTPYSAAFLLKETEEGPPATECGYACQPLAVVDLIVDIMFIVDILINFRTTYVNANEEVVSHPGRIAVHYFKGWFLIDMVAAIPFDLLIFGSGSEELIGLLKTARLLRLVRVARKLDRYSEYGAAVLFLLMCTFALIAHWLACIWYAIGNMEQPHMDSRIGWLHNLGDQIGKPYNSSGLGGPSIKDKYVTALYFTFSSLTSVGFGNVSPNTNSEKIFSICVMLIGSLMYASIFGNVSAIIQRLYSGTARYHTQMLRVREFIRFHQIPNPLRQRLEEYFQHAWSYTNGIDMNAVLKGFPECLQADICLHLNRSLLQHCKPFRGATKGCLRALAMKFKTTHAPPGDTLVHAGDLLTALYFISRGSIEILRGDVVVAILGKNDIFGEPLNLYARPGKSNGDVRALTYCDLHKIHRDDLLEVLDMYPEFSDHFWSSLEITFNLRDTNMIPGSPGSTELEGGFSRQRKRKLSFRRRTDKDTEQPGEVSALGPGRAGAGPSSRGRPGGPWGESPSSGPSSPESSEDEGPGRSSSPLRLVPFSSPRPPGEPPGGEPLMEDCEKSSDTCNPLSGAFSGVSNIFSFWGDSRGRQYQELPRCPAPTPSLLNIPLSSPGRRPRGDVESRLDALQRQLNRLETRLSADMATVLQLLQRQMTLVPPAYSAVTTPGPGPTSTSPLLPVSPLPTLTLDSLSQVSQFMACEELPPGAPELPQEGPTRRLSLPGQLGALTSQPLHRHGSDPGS

Row | fraction unbound at 4 h, 5 µM [1] | antagonistic effect for heterologous rP2X2/3 receptors (rP2X2/3 receptors) | SMILES | IC50 (hERG K+ channel; patch clamp, CHO-K1 Tet-On hERG cells) [µM] | in vitro inhibitory activity against hERG channels (hERG K+ channel; result in words)
1 | 0.675 | – | CCCc1nc(Cc2cccc(Oc3ccccc3)c2)c(C)c(C(=O)OC)c1O [Compound 28, Methyl 3-hydroxy-5-methyl-6-(3-phenoxybenzyl)-2-propylisonicotinate] | – | –
2 | 0.002 | showed an antagonistic effect | CCCc1nc(Cc2cccc(Oc3ccccc3)c2)c(C)c(C(=O)O)c1O [Compound 29, 3-Hydroxy-5-methyl-6-(3-phenoxybenzyl)-2-propylisonicotinic acid] | > 100 | did not show any inhibitory activity
